# In EP0802730B1, “PESTICIDAL COMPOUNDS” (BTG INTERNATIONAL LIMITED, priority 1995, dated 1996):
# Tested on: Mustard beetles (PC) (Phaedon cochleariae Fab)
# Test: not given
# Format: in vivo
# Details: 1 µl acetone drop applied ventrally to adults; kill at 48 hours; NA = lack of detectable activity
# Protocol: A one microlitre drop of an acetone solution of the test compound was applied ventrally to adult mustard beetles using a micro drop applicator. The treated insects were maintained for 48 hours after which time kill was assessed. Two replicates each of 20 to 25 mustard beetles were used at each dose level and 5 dose levels were treated comparably. LD50 values were calculated as for houseflies.
row,Compound,PC (LD50)
1,C=CC(C)(C)C1=C(OC(=O)CCCCCCCCC)C(=O)c2ccccc2C1=O [Example 8],c. 8.0 µg/insect
2,C=CC(C)(C)C1=C(OCc2ccccc2)C(=O)c2ccccc2C1=O [Example 13],> 20 µg/insect

# Same assay, conditions: Tables 10, 13, 14; NA = lack of detectable activity
row,Compound,PC LD50 (µg/insect)
1,"CCCCCCC1=C(O)C(=O)c2ccccc2C1=O [-(CH2)5CH3, reference compound]",c7 µg/insect
2,CC1(C2=C(O)C(=O)c3ccccc3C2=O)C=CCCC1 (centres unmarked) [Example 31],5 µg/insect
3,"CC1(CC2=C(O)C(=O)c3ccccc3C2=O)CCCCC1 [Example 32, 2-hydroxy-3-((1'methylcyclohexyl)-methyl)-naphthalene-1,4-dione]",<2 µg/insect

# Tested on: Diamond-back moth (PX) (Plutella xylostella)
# Test: Diamond-back moth larvae topical test (failure to pupate)
# Format: in vivo
# Details: fifth instar larvae, 0.5 µl drop; failure to pupate 5 days later
# Protocol: Fifth instar larvae were treated with a 0.5 µl drop of test compound in acetone. Three replicates of 10 larvae each were used at each dose rate and 5 dose rates were used per compound under test. After treatment, the larvae were maintained at about 22°C, and kill was assessed as failure to pupate 5 days later. LD50 values were calculated as for houseflies.
row,Compound,PX (LD50)
1,C=CC(C)(C)C1=C(OC(=O)CCCCCCCCC)C(=O)c2ccccc2C1=O [Example 8],c. 0.1 µg/insect
2,C=CC(C)(C)C1=C(OCc2ccccc2)C(=O)c2ccccc2C1=O [Example 13],c. 8.0 µg/insect

# Tested on: Mites (TU) (Tetranychus urticae), susceptible strain (GSS)
# Test: Mite immersion test, susceptible strain GSS
# Format: in vivo
# Details: 72 h, Tables 10, 13, 14, susceptible strain, NA = lack of detectable activity, read-out: TU LC50 (ppm/insect)
# Protocol: 25 adult female mites were immersed in 35 µl of a solution of the test compound in a 1:4 acetone-water mixture for 30 seconds. The treated insects were maintained at 21° ± 2°C and kill was assessed 72 hours after treatment. […] Three replicates of 25 mites each were used at each dose rate and 5 or 6 dose rates were used per compound under test. LC50 values were calculated in ppm of the solution of the test compound per insect. The test was carried out using a susceptible strain of mites (GSS) supplied by Schering, AG, Berlin.
row,Compound,LC50
1,"CCCCCCC1=C(O)C(=O)c2ccccc2C1=O [-(CH2)5CH3, reference compound]",170 µg/mL
2,CC1(C2=C(O)C(=O)c3ccccc3C2=O)C=CCCC1 (centres unmarked) [Example 31],~50 µg/mL
3,"CC1(CC2=C(O)C(=O)c3ccccc3C2=O)CCCCC1 [Example 32, 2-hydroxy-3-((1'methylcyclohexyl)-methyl)-naphthalene-1,4-dione]",2.9 µg/mL

# Same assay, conditions: ppm solution of test compound, 30 seconds immersion, kill at 72 hours, read-out: TU(GSS) (LC50)
row,Compound,LC50
1,C=CC(C)(C)C1=C(OC(=O)CCCCCCCCC)C(=O)c2ccccc2C1=O [Example 8],630 µg/mL
2,C=CC(C)(C)C1=C(OCc2ccccc2)C(=O)c2ccccc2C1=O [Example 13],> 1000 µg/mL

# Tested on: Houseflies (MD) (Musca domestica)
# Test: not given
# Format: in vivo
# Details: Tables 10, 13, 14; NA = lack of detectable activity
# Protocol: Female flies were treated on the thorax with a one microlitre drop of test compound dissolved in acetone. Two replicates of 15 flies were used at each dose rate and 6 dose rates were used per compound under test. After treatment, the flies were maintained at a temperature of 20° ± 1°C and kill was assessed 24 and 48 hours after treatment. LD50 values were calculated in micrograms of test compound per fly (see Sawicki et al., Bulletin of the World Health Organisation, 35, 893 (1966) and Sawicki et al., Entomologia and Exp. Appli 10, 253, (1967).
row,Compound,MD LD50 (µg/insect)
1,"CCCCCCC1=C(O)C(=O)c2ccccc2C1=O [-(CH2)5CH3, reference compound]",c20 µg/insect
2,CC1(C2=C(O)C(=O)c3ccccc3C2=O)C=CCCC1 (centres unmarked) [Example 31],6 µg/insect
3,"CC1(CC2=C(O)C(=O)c3ccccc3C2=O)CCCCC1 [Example 32, 2-hydroxy-3-((1'methylcyclohexyl)-methyl)-naphthalene-1,4-dione]",3.6 µg/insect

# Same assay, conditions: topical 1 µl drop in acetone on female flies; kill assessed 24 and 48 hours
row,Compound,MD (LD50)
1,C=CC(C)(C)C1=C(OCc2ccccc2)C(=O)c2ccccc2C1=O [Example 13],> 20 µg/insect

# Tested on: Myzus persicae, susceptible strain (US1L)
# Test: Aphid dip test, susceptible strain
# Format: in vivo
# Details: read-out: MP % kill 100 ppm
# Protocol: Activity against resistant (R) and susceptible (S) strains of aphid (Myzus persicae) was assessed using the following method.
# Entrapment rings of fluon were painted halfway up the inside of 4 cm lengths of glass tubing (1.5 cm diameter), and squares of insect-proof gauze were attached to one end of each tube by elastic bands. Fifteen apterous adults were then gently transferred into the tubes using a sable-hair brush, and the tube sealed with a second gauze square.
# Tubes containing aphids were dipped into insecticide solutions for 10 seconds, dried on blotting paper, and then inverted and tapped to cause treated aphids to fall to the unimmersed end of each tube. Handling mortality (usually zero or very slight) was scored after 1 hour, when aphids were transferred onto chinese cabbage leaf-discs (35 mm diameter) on an agar bed (25 mm in depth) in disposible plastic containers (30 mm high) and confined by applying a ring of fluon to the exposed lip of the container. Containers were store upright, without lids, in a constant environment facility maintained at 25°C under continuous room lighting. Mortality was assessed at 24, 48 and 72 hours. Two replicates of 15 aphids each were used at each dose rate and 5 or 6 dose rates were used per compound under test.
# The test was carried out using a susceptible strain of aphids (US1L) collected in the field in East Anglia, UK and an extremely resistant strain of aphids (794Jz) (R3 esterase, sensitive AChE) collected from glasshouses in the UK.
# The values given are % mortality corrected for control data. The control comprised the test solution without active ingredient.
row,Compound,mortality at 100 ppm
1,"CCCCCCC1=C(O)C(=O)c2ccccc2C1=O [-(CH2)5CH3, reference compound]",0%
2,CC1(C2=C(O)C(=O)c3ccccc3C2=O)C=CCCC1 (centres unmarked) [Example 31],5%
3,"CC1(CC2=C(O)C(=O)c3ccccc3C2=O)CCCCC1 [Example 32, 2-hydroxy-3-((1'methylcyclohexyl)-methyl)-naphthalene-1,4-dione]",50%

# Tested on: Whitefly (BT) (Bemisia tabaci), susceptible strain (SUD-S)
# Test: Whitefly residual film vial test, susceptible strain SUD-S
# Format: in vivo
# Details: 48 h, Tables 10, 13, 14, susceptible strain, NA = lack of detectable activity, read-out: BT LC50 (ppm/insect)
# Protocol: Acetone solutions (0.100 ml) of the test compounds were placed in 10 ml glass vials and evaporated with rotation to deposit a film of the compound. Thirty adult whiteflies were placed inside the vial, then after 60 minutes, the treated insects were transferred onto untreated cotton leaf discs which were kept moist on a bed of agar gel. The temperature was maintained at 25°C and mortality assessed after 48 hours. Three replicates were used at each of 5 to 7 dose levels per compound.
row,Compound,LC50
1,"CCCCCCC1=C(O)C(=O)c2ccccc2C1=O [-(CH2)5CH3, reference compound]",9.4 µg/mL
2,CC1(C2=C(O)C(=O)c3ccccc3C2=O)C=CCCC1 (centres unmarked) [Example 31],4.7 µg/mL
3,"CC1(CC2=C(O)C(=O)c3ccccc3C2=O)CCCCC1 [Example 32, 2-hydroxy-3-((1'methylcyclohexyl)-methyl)-naphthalene-1,4-dione]",3.6 µg/mL

# Same assay, conditions: ppm solution of test compound, 60 minutes film exposure, mortality after 48 hours, read-out: BT(SUD-S) (LC50)
row,Compound,LC50
1,C=CC(C)(C)C1=C(OCc2ccccc2)C(=O)c2ccccc2C1=O [Example 13],> 1000 µg/mL
